According to publication PMC3944389, “Differential Neuroprotective Effects of 5′-Deoxy-5′-Methylthioadenosine” (PLoS ONE, 2014):

What was measured:
[1] = tested on: C57Bl mice treated with MPTP; experiment: MPTP mouse model of Parkinson's disease, stereological counting of TH+ neurons; format: in vivo; details: MTA 30 mg/kg, MSX-3 10 mg/kg (legend: 9 mg/kg), alone or combined; MPTP 30 mg/kg i.p. 5 days
Protocol: 12-week-old male C57Bl mice from Charles River (Barcelona, Spain) were injected i.p. with 30 mg/kg 1-methyl-4-phenyl-1,2,3,6-tetrahydropyridine (MPTP, Sigma-Aldrich) on five consecutive days. Subsequently, MTA (30 mg/kg) and/or the A2A adenosine receptor (A2AR, 10 mg/kg) antagonist, MSX-3 (Sigma-Aldrich), was administered one day before starting MPTP treatment and 1 h after each MPTP injection (n = 6 in each experimental group). We used mice in the MPTP model because rats are resistant to systemic MPTP administration and thus, the rat MPTP model requires stereotaxic MPTP injection directly into the nigrostriatal fibers. […]
The reference volume was calculated according to Cavalieri principles from images obtained with a 2× objective using a point count array. The cross-sectional area of the nucleus was measured and the reference volume (Vr) for the entire nucleus was estimated using the following equation: [drawing 1] where T is the thickness of the sections, a/p is the area of each point and Pi is the number of points that landed within the area. The region of interest to estimate the area was outlined at low magnification (4×), and the number of labeled neurons was calculated under 100× magnification (with oil immersion) using randomized meander sampling and the optical dissector methods. […]

[2] = tested on: rat mixed astrocyte-neuron cultures; experiment: NMDA-induced caspase 3 activation in mixed astrocyte-neuron cultures; format: cell-based; details: pre- or co-treatment; MTA 250 µM, MK-801 10 µM; 300 µM NMDA
Protocol: Finally, to prepare neuron-astrocyte co-cultures, neurons were resuspended in B27 Neurobasal medium plus 10% of foetal bovine serum (FBS) and then seeded onto a monolayer of astrocytes in 24-well plates at a density of 1–2×10^5 cells per well, the astrocytes having been prepared beforehand, as described elsewhere. One day later, the medium was replaced with B27-Neurobasal plus 10% FBS medium, and the cells were maintained at 37°C in 5% CO2. The cultures were used 8–9 days after plating. Neurons and astrocytes were identified with antibodies against microtubule-associated protein-2 and GFAP, respectively.
(§1) To assay N-methyl–D-aspartate (NMDA) excitotoxicity, primary cultures were seeded in 24-well plates at 15×10^4 cells/well, cultured for 7 days in vitro, and treated for different times with the vehicle alone (dimethyl sulfoxide (DMSO) 1%), NMDA (300 µM), NMDA (300 µM) + MTA (250 µM) or NMDA (300 µM) + MK-801, a NMDA receptor antagonist (10 µM). […] Caspase 3 activity was measured in these lysates one hour after the NMDA addition.
(§2) Cortical neurons, or mixed cortical neurons and glia, were seeded in poly-L-lysine-coated 6-well culture plates during 7 days in vitro before start the set of experiments. […] The extracts were then centrifuged at 5,000×g for 10 min at 4°C and the protein content was determined by the BCA protein assay. […]

[3] = tested on: rat pure primary neuronal cultures; experiment: NMDA-induced caspase 3 activation in pure primary neuronal cultures; format: cell-based; details: 300 µM NMDA
Protocol: Primary cultures of rat brain cortical neurons were prepared essentially as described previously. The fronto-lateral cortical lobes were dissected out of Sprague-Dawley embryonic day 17 fetuses and they were dissociated mechanically in Hanks' balanced solution. After centrifugation at 800×g for 5 min, the cells were resuspended in serum-free Neurobasal medium (GIBCO) supplemented with B27 (GIBCO) containing 2 mM L-glutamine, penicillin (20 units/ml) and streptomycin (5 µg/ml), and they were plated onto poly-L-lysine-coated 24-well culture plates or on poly-L-lysine-coated 6-well culture plates. […]
as §1, §2

With 5′-deoxy-5′-methylthioadenosine [MTA] the “neuroprotection: TH+ neurons in the substantia nigra” value [1] was “not statistically significant”, the “caspase 3 activation induced by NMDA” value [2] was “reverted to basal levels” and the “survival of neurons exposed to NMDA (caspase 3 activity)” value ([3]; co-treatment with MTA (100, 250 and 500 µM), 1 h) was “not enhanced”. The “caspase 3 activity induced by NMDA” value ([3]; pre-treatment 15 min before NMDA, MTA 100, 250 and 500 µM) was “decreased significantly”.
